# In US20070117743A1, “New antitumoral compounds” (priority 2003, published 2007):
# Like-named read-outs stand apart in the source and are kept apart here.
# Assays:
# Format in all cases: cell-based, human
# A-549 = test: SRB colorimetric assay of cell growth and viability, A-549; conditions: 48 hours exposure; for GI50: read-out: GI50 A-549; for CC50: read-out: LC50 A-549
# K-562 = test: SRB colorimetric assay of cell growth and viability, K-562; conditions: 48 hours exposure; for CC50: read-out: LC50 K-562
# SK-MEL-28 = test: SRB colorimetric assay of cell growth and viability, SK-MEL-28; conditions: 48 hours exposure; for CC50: read-out: LC50 MEL-28
# SK-BR-3 = test: SRB colorimetric assay of cell growth and viability, SK-BR-3; conditions: 48 hours exposure
# LNCaP = test: SRB colorimetric assay of cell growth and viability, LNCaP; conditions: 48 hours exposure; for GI50: read-out: GI50 LN-caP; for CC50: read-out: LC50 LN-caP
# Source text: The finality of this assay is to interrupt the growth of a “in vitro” tumor cell culture by means a continued exhibition of the cells to the sample to be testing.
# This form of the assay employs 96 well cell culture microplates of 9 mm diameter (Faircloth, 1988; Mosmann, 1983). Most of the cell lines are obtained from American Type Culture Collection (ATCC) derived from different human cancer types.
# Cells are maintained in RPMI 1640 10% FBS, supplemented with 0.1 g/l penicillin and 0.1 g/l streptomycin sulfate and then incubated at 37° C., 5% CO2 and 98% humidity. For the experiments, cells were harvested from subconfluent cultures using trypsin and resuspended in fresh medium before plating.
# Cells are seeded in 96 well microtiter plates, at 5×10^3 cells per well in aliquots of 195 μL medium, and they are allowed to attach to the plate surface by growing in drug free medium for 18 hours. Afterward, samples are added in aliquots of 5 μL in a ranging from 10 to 10^−8 μg/mL, dissolved in DMSO:EtOH:PBS (0.5:0.5:99). After 48 hours exposure, the antitumor effect are measured by the SRB methodology: cells are fixed by adding 50 μL of cold 50% (wt/vol) trichloroacetic acid (TCA) and incubating for 60 minutes at 4° C. Plates are washed with deionized water and dried. One hundred μL of SRB solution (0.4% wt/vol in 1% acetic acid) is added to each microtiter well and incubated for 10 minutes at room temperature. Unbound SRB is removed by washing with 1% acetic acid. Plates are air dried and bound stain is solubilized with Tris buffer. Optical densities are read on a automated spectrophotometric plate reader at a single wavelength of 490 nm.
# The values for mean+/− SD of data from triplicate wells are calculated. Some parameters for cellular responses can be calculated: GI=growth inhibition, TGI=total growth inhibition (cytostatic effect) and LC=cell killing (cytotoxic effect).
# DU-145 = test: SRB colorimetric assay of cell growth and viability, DU-145; conditions: 48 hours exposure
# IGROV-ET = test: SRB colorimetric assay of cell growth and viability, IGROV-ET; conditions: 48 hours exposure; for CC50: read-out: LC50 IGROV-ET
# HeLa-APL = test: SRB colorimetric assay of cell growth and viability, HeLa-APL; conditions: 48 hours exposure; for CC50: read-out: LC50 HELA-APL
# LoVo = test: SRB colorimetric assay of cell growth and viability, LoVo; conditions: 48 hours exposure; for CC50: read-out: LC50 LOVO
# HT-29 = test: SRB colorimetric assay of cell growth and viability, HT-29; conditions: 48 hours exposure; for GI50: read-out: GI50 HT-29; for CC50: read-out: LC50 HT-29
# HeLa = test: SRB colorimetric assay of cell growth and viability, HeLa; conditions: 48 hours exposure; for CC50: read-out: LC50 HELA
# IGROV-1 = test: SRB colorimetric assay of cell growth and viability, IGROV-1; conditions: 48 hours exposure
# PANC-1 = test: SRB colorimetric assay of cell growth and viability, PANC-1; conditions: 48 hours exposure; for CC50: read-out: LC50 PANC-1
# LoVo-Dox = test: SRB colorimetric assay of cell growth and viability, LoVo-Dox; conditions: LOVO-DOX, 48 hours exposure
# Summary of the method: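 Optical density at 490 nm of solubilized SRB, from triplicate wells, yields GI, TGI and LC values. Before staining, cells are fixed for 60 minutes at 4° C in cold TCA after a 48-hour exposure.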
smiles,measurement,setting,value
"C/C=C1\NC(=O)[C@H](Cc2ccccc2)NC(=O)[C@@H](C(C)C)NC(=O)[C@@H]([C@@H](C)CC)NC(=O)[C@H](NC(=O)[C@H](NC(=O)[C@H](CCCN)NC(=O)[C@H]2CCCN2C(=O)[C@H](NC(=O)[C@@H](NC(=O)[C@@H](NC(=O)[C@H](NC(=O)CCCCCCCCCCCCCCCCCCC)C(C)C)[C@@H](C)O)C(C)C)C(C)C)[C@@H](C)CC)[C@@H](C)OC(=O)[C@H](C(C)C)NC1=O [Compound 13, [Icos^14]-KF]",TGI A-549,A-549,2.13E−06 Molar
same,GI50,A-549,1.18 µM
same,CC50,A-549,3.82 µM
same,GI50,K-562,1.23 µM
same,TGI K-562,K-562,2.42E−06 Molar
same,CC50,K-562,4.71 µM
same,GI50,SK-MEL-28,1.25 µM
same,TGI MEL-28,SK-MEL-28,2.21E−06 Molar
same,CC50,SK-MEL-28,3.93 µM
same,GI50,SK-BR-3,0.861 µM
same,LC50,SK-BR-3,3.99 µM
same,TGI SK-BR-3,SK-BR-3,1.86E−06 Molar
same,TGI LN-caP,LNCaP,2.39E−06 Molar
same,GI50,LNCaP,1.21 µM
same,CC50,LNCaP,4.73 µM
same,GI50,DU-145,1.28 µM
same,LC50 (concentration causing 50% net cell kill),DU-145,4.04 µM
same,TGI DU-145,DU-145,2.28E−06 Molar
same,GI50,IGROV-ET,1.66 µM
same,TGI IGROV-ET,IGROV-ET,2.81E−06 Molar
same,CC50,IGROV-ET,4.79 µM
same,GI50,HeLa-APL,1.25 µM
same,CC50,HeLa-APL,3.98 µM
same,GI50,LoVo,0.903 µM
same,TGI LOVO,LoVo,1.79E−06 Molar
same,CC50,LoVo,3.58 µM
same,TGI HT-29,HT-29,2.32E−06 Molar
same,GI50,HT-29,1.26 µM
same,CC50,HT-29,4.28 µM
same,GI50,HeLa,1.4 µM
same,TGI HELA,HeLa,2.71E−06 Molar
same,CC50,HeLa,5.25 µM
same,GI50,IGROV-1,1.36 µM
same,LC50 (concentration causing 50% net cell killing),IGROV-1,4.68 µM
same,TGI IGROV,IGROV-1,2.52E−06 Molar
same,GI50,PANC-1,2.02 µM
same,TGI PANC-1,PANC-1,5.48E−06 Molar
same,CC50,PANC-1,6.02 µM
"C/C=C1\NC(=O)[C@H](Cc2ccccc2)NC(=O)[C@@H](C(C)C)NC(=O)[C@@H]([C@@H](C)CC)NC(=O)[C@H](NC(=O)[C@H](NC(=O)[C@H](CCCN)NC(=O)[C@@H]2CCCN2C(=O)[C@H](NC(=O)[C@@H](NC(=O)[C@@H](NC(=O)[C@H](NC(=O)CC[C@@H](C)CC)C(C)C)[C@@H](C)O)C(C)C)C(C)C)[C@@H](C)CC)[C@@H](C)OC(=O)[C@H](C(C)C)NC1=O [Compound 59, [Pro^9, (4S)-MeHex^14]-KF]",TGI A-549,A-549; A-549,6.76E−06 Molar
same,GI50,A-549; A-549,≥ 6.76 µM
same,CC50,A-549; A-549,≥ 6.76 µM
same,GI50,K-562; K-562,≥ 6.76 µM
same,TGI K-562,K-562; K-562,6.76E−06 Molar
same,CC50,K-562; K-562,≥ 6.76 µM
same,GI50,SK-MEL-28; SRB,≥ 6.76 µM
same,TGI MEL-28,SK-MEL-28; SRB,6.76E−06 Molar
same,CC50,SK-MEL-28; SRB,≥ 6.76 µM
same,TGI LN-caP,LNCaP; SRB,6.76E−06 Molar
same,GI50,LNCaP; SRB,4.52 µM
same,CC50,LNCaP; SRB,≥ 6.76 µM
same,GI50,DU-145; SRB,≥ 6.76 µM
same,LC50 (concentration causing 50% net cell kill),DU-145; SRB,≥ 6.76 µM
same,TGI DU-145,DU-145; SRB,6.76E−06 Molar
same,GI50,LoVo-Dox,≥ 6.76 µM
same,TGI LOVO-DOX,LoVo-Dox,6.76E−06 Molar
same,CC50,LoVo-Dox; read-out: LC50 LOVO-DOX,≥ 6.76 µM
same,GI50,IGROV-ET; SRB,≥ 6.76 µM
same,TGI IGROV-ET,IGROV-ET; SRB,6.76E−06 Molar
same,CC50,IGROV-ET; SRB,≥ 6.76 µM
same,GI50,HeLa-APL; HELA-APL,≥ 6.76 µM
same,TGI HELA-APL,HeLa-APL; HELA-APL,6.76E−06 Molar
same,CC50,HeLa-APL; HELA-APL,≥ 6.76 µM
same,GI50,LoVo; LOVO,5.28 µM
same,TGI LOVO,LoVo; LOVO,6.76E−06 Molar
same,CC50,LoVo; LOVO,≥ 6.76 µM
same,TGI HT-29,HT-29; HT-29,6.76E−06 Molar
same,GI50,HT-29; HT-29,≥ 6.76 µM
same,CC50,HT-29; HT-29,≥ 6.76 µM
same,GI50,HeLa; HELA,≥ 6.76 µM
same,TGI HELA,HeLa; HELA,6.76E−06 Molar
same,CC50,HeLa; HELA,≥ 6.76 µM
same,GI50,IGROV-1; SRB,≥ 6.76 µM
same,LC50 (concentration causing 50% net cell killing),IGROV-1; SRB,≥ 6.76 µM
same,TGI IGROV,IGROV-1; SRB,6.76E−06 Molar
same,GI50,PANC-1; PANC-1,≥ 6.76 µM
same,TGI PANC-1,PANC-1; PANC-1,6.76E−06 Molar
same,CC50,PANC-1; PANC-1,≥ 6.76 µM
